{
  "source": "patent US12280212B2",
  "about": "“Method and apparatus for simultaneously administering oxygen, and metered dose inhaler medication by inhalation” (priority 2019, dated 2025)",
  "experiment": "MDI inserted through a port into an oxygen mask without extender tube at 2-15 L/min oxygen flow, measured blood levels",
  "assay_type": "in vivo, patient",
  "conditions": "2-15 L/min oxygen flow (wash-out)",
  "excerpt": "The relatively high flow oxygen jet disperses the drug aerosol initially expressed into the mask from the MDI that was inserted into the mask, and as a result, much of the drug is dispersed around the interior of the mask and is washed out of the mask and back out through the MDI housing to ambient by the flow of oxygen, rather than being inhaled by the patient.\nIn this invention, an extender tube 300 (FIG. 12) is provided that can be inserted into or over the mouthpiece section 230 of an MDI body (FIGS. 8A, 8B, and 9). […] This use of the tube to channel the inhalable medication from an MDI to the mouth of the patient addresses the problem noted above that simply inserting an MDI mouthpiece into a mask with a flow of oxygen causes “wash-out” of the drug, i.e., the drug aerosol or particles (i.e., the discharge from an MDI) are dispersed within the mask and out to ambient, and as a result measured drug levels inhaled by the patient are very low. In the instant invention, measured drug levels of the MDI drug in the lung are high.",
  "data": [
    {"compound": "CC(C)(C)NCC(O)c1ccc(O)c(CO)c1", "note": "(stereo not shown) [albuterol HFA, albuterol]", "values": [
      {"measurement": "measured blood levels of the albuterol drug", "value": "negligible"}
    ]}
  ]
}
